Experiments:
[1] = system: MDA-MB-231, MCF-7 and T-47D breast cancer cell lines; assay: PrestoBlue cytotoxicity, range over the three breast cancer lines; type: cell-based; conditions: MDA-MB-231, MCF-7, T-47D; 72 h
Procedure: The PHEN-derived ligands (DCP, BP) (together with PHEN for comparison) and the isolated complexes ([RuCym(DCP)-Cl]-Cl, [RhCp*(DCP)-Cl]-Cl, [RuCym(BP)-Cl]-Cl, [RhCp*(BP)-Cl]-Cl) were tested against the estrogen receptor (ER) negative MDA-MB-231, and the ER positive MCF-7 and T-47D breast cancer cell lines (Table , and Figure a for easier comparison).
MDA-MB-231 breast adenocarcinoma and MCF-7 and T-47D invasive breast carcinomas were purchased from the Developmental Therapeutic Program of the National Cancer Institute (NIH, USA), and they were cultured in RPMI medium (Thermo Fisher). MES–SA and MES–SA/Dx5 uterine sarcoma cell lines were purchased from American Type Culture Collection and were kept in DMEM (Thermo Fisher). MES–SA/B1 was created by the transfection of the human MDR1 gene in MES–SA, and MES–SA mCherry, MES–SA/B1 mOrange, and MES–SA/Dx5 eGFP were engineered to stably express the respective fluorescent proteins, as described previously. Culture media were supplemented with 10% fetal bovine serum, 2 mM L-glutamine, 100 units/mL penicillin, and 100 μg/mL streptomycin (Thermo Fisher). Cells were kept at 37 °C under 5% CO2 and were negative for mycoplasma infection.
Cytotoxicity of the nonfluorescent cancer cells (MDA-MB-231, MCF-7, T-47D) were assessed with PrestoBlue cell viability reagent (Thermo Fisher). Briefly, 2500 cells/well were seeded on 384-well plates, and then the next day drugs were added. After 72 h incubation, PrestoBlue was added in a 10% final concentration, and after an hour of additional incubation, plates were measured with a PerkinElmer EnSpire plate reader at 555 nm/585 nm excitation/emission wavelengths. Fluorescent cells (MES-SA mCherry, MES-SA/B1 mOrange, MES-SA/Dx5 eGFP) were admixed before seeding on 384-well plates at 800 cells/well density each, thus altogether 2400 cells/well. Drugs were added the following day, and the intensity of the fluorescent proteins were measured after 144 h incubation at the respective fluorescent channels (excitation/emission: eGFP: 485 nm/510 nm; mCherry: 585 nm/610 nm; mOrange: 545 nm/567 nm). pIC50 values were calculated by a custom program written by Judit Sessler in C#. IC50 values and standard deviation were calculated from average pIC50 values from at least 3 independent measurements.

[2] = H2O/Cl– co-ligand exchange constant by UV–vis spectrophotometry; type: physicochemical; conditions: pH = 6.0, 20 mM phosphate buffer; t = 25 °C
Procedure: The coordinated chlorido ligand can undergo spontaneous partial exchange upon dissolution, making it essential to determine the equilibrium constant for the [M(η^6-arene/η^5-arenyl)(ligand)-Cl]^+ + H2O ⇌ [M(η^6-arene/η^5-arenyl)(ligand)(H2O)]^2+ + Cl^– process (or for the reverse direction) to evaluate the ratio of chlorido to aqua complexes. The logK′ (H2O/Cl^–) constants were determined by UV–vis spectrophotometry (Figure ) due to the changes in the charge transfer bands. […] Importantly, this process is slow for the RuCym complexes, which requires a longer time to reach equilibrium, necessitating careful equilibration in experimental setups before further analysis. Therefore, in the case of the RuCym complexes, individual samples were prepared and their spectra were measured after 1 h, while the spectra for the RhCp* complexes were obtained by direct titration with the KCl solution. The appearance of isosbestic points in the spectra confirms the clear equilibrium between chlorido- and aqua complexes.
4 (a) Changes in the UV–vis spectra of complex RuCymBP due to the H2O/Cl^– coligand exchange process, (b) with absorbance variation at 357 nm plotted as a function of the chloride concentration (○) with the fitted curve (dashed line). Individual samples were prepared and the spectra were recorded after 1 h waiting time. {c complex = 28 μM; c Cl– = 56 μM – 0.29 M; t = 25 °C; pH = 6.0 (20 mM phosphate buffer)}.
An Agilent Cary 8454 diode array spectrophotometer was utilized to obtain UV–vis spectra in the wavelength range 190–1100 nm; the path length was 1 cm. The concentrations of the complexes were between 20 and 100 μM. The actual pH of the samples were measured with an Orion 710A pH-meter equipped with a Metrohm combined electrode (type 6.0234.100) and the pH titrations were performed by a KOH solution using a Metrohm 665 Dosimat buret at 25.0 °C. […] The computer program HypSpec was used to calculate the equilibrium constants.

[3] = molecular target: T1, HSA Sudlow’s site I (IIA subdomain) (Homo sapiens, UniProt P02768); assay: warfarin (WF) site marker displacement on HSA; type: binding; conditions: PBS’; t = 25 °C; HSA–WF 1:1, 1.2 μM
T1 construct: purchased Sigma-Aldrich A8763
Procedure: (§1) To further explore the binding affinity and site specificity of the metal complexes, site marker displacement experiments were conducted using WF and DG, which bind to Sudlow’s site I (in IIA subdomain) and to Sudlow’s site II (in IIIA subdomain), respectively. The displacement of these fluorescence probes directly confirms the interactions of the metal complexes with the respective binding sites. The displacement constants of WF (KWF′) by the metal complexes (Figure c,d, Table ) were correlated with the Trp-214 quenching data.
(§2) Fluorescence measurements were carried out on a Fluoromax (Horiba Jobin Yvon) spectrofluorometer using a 1 cm × 1 cm quartz cuvette in order to assess the interactions of the complexes with HSA in PBS’ medium at 25 °C. The calculated quenching or displacement conditional constants for the HSA-complex species were obtained using the computer program HypSpec. Calculations always were based on data obtained from at least two independent measurements. Self-absorbance and inner filter effect had to be taken into account, and corrections were made as it was described in our former works. ,
(§3) Table S7. Conditions applied for steady -state spectrofluorometric measurements.
(§4) cHSA cMARKER ccomplex λEX λEM slit widths
(§5) (μM) (μM) (μM) (nm) (nm) EX/EM […]
(§6) S.; Deflon, V. M.; Ferreira, A. G.; Cominetti, M. R.; Batista, A. A. Cytotoxicity of Ru(II) Piano-
(§7) Stool Complexes with Chloroquine and Chelating Ligands against Breast and Lung Tumor Cells:
(§8) Interactions with DNA and BSA. J Inorg Biochem 2015, 153, 150–161.
(§9) Van Deun, R.; Van Hecke, K. Antitumor Activity of Organoruthenium Complexes with Chelate

[4] = molecular target: T2, HSA Sudlow’s site II (IIIA subdomain) (Homo sapiens, UniProt P02768); assay: dansylglycine (DG) site marker displacement on HSA; type: binding; conditions: HSA–DG 1:1; PBS’; t = 25 °C
T2 construct: purchased Sigma-Aldrich A8763
Procedure: as §1, §2, §3, §4, §5, §6, §7, §8, §9

T2 sequence (P02768 25-609): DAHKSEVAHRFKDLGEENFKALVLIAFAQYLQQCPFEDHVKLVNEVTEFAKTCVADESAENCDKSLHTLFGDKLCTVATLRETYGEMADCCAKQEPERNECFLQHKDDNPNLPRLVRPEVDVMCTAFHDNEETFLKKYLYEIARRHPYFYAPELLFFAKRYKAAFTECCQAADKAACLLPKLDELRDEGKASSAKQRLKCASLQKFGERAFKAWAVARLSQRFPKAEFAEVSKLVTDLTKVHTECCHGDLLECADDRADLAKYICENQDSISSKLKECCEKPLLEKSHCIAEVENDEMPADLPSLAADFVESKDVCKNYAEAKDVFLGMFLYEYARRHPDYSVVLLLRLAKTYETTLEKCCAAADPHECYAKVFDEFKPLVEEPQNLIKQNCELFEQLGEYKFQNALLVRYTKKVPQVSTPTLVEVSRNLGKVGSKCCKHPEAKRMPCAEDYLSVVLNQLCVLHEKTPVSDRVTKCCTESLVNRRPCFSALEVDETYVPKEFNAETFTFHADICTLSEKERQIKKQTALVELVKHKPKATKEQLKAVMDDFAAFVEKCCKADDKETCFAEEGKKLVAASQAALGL
T1 sequence (P02768 25-609): as above

| Molecule | IC50 [1] | logK′ (H2O/Cl–) [2] | logK WF′ (WF displacement constant) [3] | DG displacement / interaction with Sudlow’s site II [4] |
| --- | --- | --- | --- | --- |
| c1ccc(-c2ccnc3c2ccc2c(-c4ccccc4)ccnc23)cc1 [BP, 4,7-diphenyl-1,10-phenanthroline] | 0.59 to 0.76 µM |  |  |  |
| Clc1ccnc2c1ccc1c(Cl)ccnc12 [DCP, 4,7-dichloro-1,10-phenanthroline] | 3.8 to 5.1 µM |  |  |  |
| Cc1c(C)c(C)[c-](C)c1C.Clc1ccnc2c1ccc1c(Cl)ccnc12.[Cl-].[Cl-].[Rh+3] [RhCp*DCP, [Rh(III)(η^5-C5Me5)(4,7-dichloro-1,10-phenanthroline)Cl]Cl] | 5.9 to 7.6 µM | 2.85 ± 0.01 ^b | 4.8 ± 0.1 | no significant interaction |
| Cc1ccc(C(C)C)cc1.[Cl-].[Cl-].[Ru+2].c1ccc(-c2ccnc3c2ccc2c(-c4ccccc4)ccnc23)cc1 [RuCymBP, [Ru(II)(η^6-p-cymene)(bathophenanthroline)Cl]Cl] | 1.2 to 1.9 µM | 2.31 ± 0.13 | 4.4 ± 0.1 | no significant interaction |
| Cc1ccc(C(C)C)cc1.Clc1ccnc2c1ccc1c(Cl)ccnc12.[Cl-].[Cl-].[Ru+2] [RuCymDCP, [Ru(II)(η^6-p-cymene)(4,7-dichloro-1,10-phenanthroline)Cl]Cl] | > 75 µM | 2.31 ± 0.03 | ≤4.3 | no significant interaction |
| [Rh(III)(η^5-C5Me5)(bathophenanthroline)Cl]Cl [RhCp*BP] | 4.7 to 14.9 µM | 2.98 ± 0.01 | 5.6 ± 0.1 | able to displace the DG |

Source: paper PMC12308784, “Organometallic Half-Sandwich Complexes of 1,10-Phenanthroline Derivatives with Improved Solubility, Albumin-Binding, and Nanoformulation Potential Targeting Drug Resistance in Cancer” (Inorganic Chemistry, 2025)
